These results are taken from patent publication US20100048704A1, “PHARMACEUTICAL AND NUTRACEUTICAL PRODUCTS COMPRISING VITAMIN K2” (NATTOPHARMA ASA, priority 2006, published 2010).

Data set [1] deals with vascular smooth muscle cells, MG-63 cell line, HepG2 cell line. The experiment in a line: Cellular vitamin K uptake in three cell types. The data set is classed as cell-based. To be noted: for cellular uptake compared with other K vitamins: all cells, mixture containing 1 μmol/L of each vitamin. As to the method: (§1) This series of cell culture experiments describe vitamin K uptake and metabolism under various conditions. The following forms of vitamin K were compared: K1, MK-4, MK-7, MK-8 and MK-9. They were tested in three different cell types: the vascular smooth muscle cells, the osteoblast-like MG-63 cell line and the hepatocyte-like HepG2 cell line. In all experiments the vitamins were used as a mixture containing 1 μmol/L of each vitamin. All data are the means of triplicate experiments.
(§2) Cells were grown until 80% confluence after which vitamin K was added in different concentrations (see FIGS. 5A-C). The added vitamin K concentration is given as nmol/L of culture medium, the vitamin K recovered is given as nmol/g of cellular protein. Note the different scales for each vitamin.
Cellular uptake of K vitamins was followed in time. In all cases a mixture of the various K vitamins (1 μmol/L final concentration in the culture medium) was added to the cells after they had grown to 80% confluence. […] The mechanism behind this cellular preference for MK-7 is not quite clear.

The test system is the same in data set [2]. The experiment in a line: K epoxide formation in the presence of warfarin (bypassing of warfarin) in three cell types. The data set is classed as cell-based. To be noted: for interference with warfarin: 10 μmol/L warfarin added 18 h before and present during vitamin K incubation. On the procedure:
as §1
(§3) Under normal conditions, all forms of vitamin K are taken up in their quinone form, and they are reduced into the hydroquinone before being active as a cofactor for the enzyme gammaglutamylcarboxylase. During the carboxylation they are oxidized into epoxides, which can be reduced by the membrane-bound enzyme VKOR. VKOR forms the target for drugs known as coumarin derivatives, which inactivate the enzyme and thus block the recycling of K epoxides. Vitamin K quinones (and not the epoxides) can be reduced by a second enzyme system, known as DT diaphorase. […] Coumarin derivatives are widely used as oral anticoagulants; their mode of action is based on the inhibition of clotting factor carboxylation in the liver. Interference with coumarin derivatives is thus a potential risk of vitamin K supplements. Therefore we have investigated whether and to which extend the various K vitamins interfere with warfarin. In the study described, 10 μmol/L of warfarin was added to the culture media 18 h before adding vitamin K. Also during incubation with K vitamins this concentration of warfarin was present.

The subject of another data set is MG63 cell line. The experiment in a line: K epoxide formation in the presence of warfarin in MG63. The data set is classed as cell-based. To be noted: 10 μmol/L warfarin. As to the method:
as §1
as §3, with “In the study described, 10 μmol/L of warfarin was added to the culture media 18 h before adding vitamin K. Also during incubation with K vitamins this concentration of warfarin was present.” left out

Data set [3] concerns vascular smooth muscle cells, MG-63 cell line, HepG2 cell line. Description: K epoxide formation without warfarin under cell starvation (1% fetal calf serum). The data set is classed as cell-based. The note with it: no warfarin, fetal calf serum decreased to 1% (v/v). As to the method:
as §1
(§4) Since under standard cell culture conditions no epoxides are formed, we have applied sub-optimal growth conditions by decreasing the fetal calf serum in the culture medium to 1% (v/v). […] This was ruled out in an experiment in which VSMC and MG63 were grown at 1% FCS and with only one single form of vitamin K present (1 μmol/L).

In data set [4] the test system is vascular smooth muscle cells. Description: Carboxylated matrix Gla-protein in culture medium with a single form of vitamin K. The data set is classed as cell-based. To be noted: 1% FCS, single form of vitamin K 1 μmol/L, 24 hours incubation. As to the method: as §4
The subject of data set [5] is MG63. Description: Carboxylated osteocalcin in culture medium with a single form of vitamin K. The data set is classed as cell-based. The note with it: 1% FCS, single form of vitamin K 1 μmol/L, 24 hours incubation. On the procedure: as §4
Data set [6] is described as follows: Stability of K vitamins in cell culture media with no cells present. The data set is classed as physicochemical. The note with it: 1 μM of each vitamin, three growth media, over 48 hours. On the procedure:
Here we have checked the stability of the various forms of vitamin K (1 μM of each) in the three cell culture media with no cells present.

Data set [7] deals with endogenous thrombin potential (ETP). The experiment in a line: Endogenous thrombin potential (ETP) in platelet-rich plasma of volunteers on fish oil, with or without MK-7. The data set is classed as in vivo, human. An excerpt: Twenty healthy males (43±8 years of age) were enrolled in the study. The mean body mass index was 25.1±3.5 kg/m^2. All subjects received 5 grams of fish oil (containing 35% EPA, 25% DHA and 10% other n-3 PUFA) per day during 4 months. […] Blood samples were collected in citrate every month to prepare platelet-rich plasma. The endogenous thrombin potential (ETP), reflecting the total thrombin activity during coagulation, was monitored according to H. C. Hemker et al. (Pathophysiology of Haemostasis and Thrombosis 2003; 33:4-15). Carboxylated and non-carboxylated Matrix Gla-Protein (MGP) species were monitored using sandwich ELISAs based on conformation-specific antibodies obtained from VitaK BV (Maastricht, The Netherlands) with normal pooled plasma as a reference. The ratio between carboxylated and non-carboxylated MGP is taken as a measure for vascular vitamin K status. All values are expressed as a percentage of those in the pooled reference plasma.

A further data set deals with Matrix Gla-Protein (MGP). The experiment in a line: Carboxylated / non-carboxylated MGP in plasma by sandwich ELISA during fish oil and MK-7 intake. The data set is classed as in vivo, human. The note with it: 5 g/day fish oil plus 10 μg/day MK-7, months 2, 3 and 4. As to the method:
Twenty healthy males (43±8 years of age) were enrolled in the study. The mean body mass index was 25.1±3.5 kg/m^2. All subjects received 5 grams of fish oil (containing 35% EPA, 25% DHA and 10% other n-3 PUFA) per day during 4 months. During the last 3 months of the study all volunteers received additionally one soft gel capsule per day providing 10 μg of MK-7. Blood samples were collected in citrate every month to prepare platelet-rich plasma. The endogenous thrombin potential (ETP), reflecting the total thrombin activity during coagulation, was monitored according to H. C. Hemker et al. (Pathophysiology of Haemostasis and Thrombosis 2003; 33:4-15). Carboxylated and non-carboxylated Matrix Gla-Protein (MGP) species were monitored using sandwich ELISAs based on conformation-specific antibodies obtained from VitaK BV (Maastricht, The Netherlands) with normal pooled plasma as a reference. The ratio between carboxylated and non-carboxylated MGP is taken as a measure for vascular vitamin K status. All values are expressed as a percentage of those in the pooled reference plasma.
(In general: An ELISA detects its analyte on a solid surface through an enzyme-linked reagent.)

Another data set relates to osteocalcin. Description: Carboxylated / non-carboxylated osteocalcin in serum during fish oil and MK-7 intake. The data set is classed as in vivo, human. To be noted: 5 g/day fish oil plus 10 μg/day MK-7, months 3 and 4. An excerpt:
In the same experiment as described above, also serum was collected, in which carboxylated and non-carboxylated osteocalcin species were monitored using the conformation-specific osteocalcin kits from Takara (Japan).

Data set [8] is described as follows: Stability of MK-7 dissolved in fish oil and krill oil. The data set is classed as physicochemical. The note with it: for time compositions remained stable: MK-7 mixed with fish oil or krill oil. As to the method:
Compositions as described in Examples 2 and 4 (MK-7 dissolved in fish oil and krill oil, respectively) were prepared to a final concentration of 2 μg of MK-7 per g of oil. Samples were prepared in sealed glass bottles and kept in a dark place at room temperature, 40° C. and 100° C., respectively. At regular times, samples were taken and analyzed for their MK-7 content. No loss of MK-7 was observed, even after 2 weeks at 100° C.

Data set [9] has as its system vascular smooth muscle cells. The experiment in a line: Cellular MK-7 uptake in vascular smooth muscle cells. The data set is classed as cell-based. The note with it: FIG. 5D. As to the method:
as §1, §2

In data set [10] the test system is MG63. The experiment in a line: Cellular MK-7 uptake in MG63. The data set is classed as cell-based. The note with it: FIG. 5D. On the procedure:
as §1, §2

The test system of data set [11] is blood clotting factor carboxylation. The note with it: dosages as high as 100 μg per day; cited from earlier work.

For `CC(C)=CCC/C(C)=C/CC/C(C)=C/CC/C(C)=C/CC1=C(C)C(=O)c2ccccc2C1=O` [MK-4], in [1], the “cellular uptake compared with other K vitamins” value was “much less”. The interference with warfarin entry in data set [2] is “interfere substantially”. In addition, in the data set with MG63 cell line, the “K vitamin epoxides identified in the presence of warfarin” value is “could only identify MK-4 epoxide”. Besides, in data set [3], the “epoxides found without warfarin at decreased fetal calf serum” value was “mainly found”. Besides, the “Carboxylated matrix Gla-protein in the culture medium” value (shortened to “Carboxylated matrix Gla-protein”) in [4] is 10.7 ng/mL. In addition, the “Carboxylated osteocalcin in the culture medium” value (“Carboxylated osteocalcin” for short) in the data set with MG63 [5] stood at 4.1 ng/mL.

Turning to `CC(C)=CCC/C(C)=C/CC/C(C)=C/CC/C(C)=C/CC/C(C)=C/CC/C(C)=C/CC/C(C)=C/CC/C(C)=C/CC1=C(C)C(=O)c2ccccc2C1=O` [MK-8], the “stability in growth media” value in [6] was “fairly stable”. Moreover, in data set [1], the “cellular uptake compared with other K vitamins” value is listed as “somewhat less”. For the same compound, the “utilization of K-vitamins in the presence of warfarin (rank order)” value (“utilization of K-vitamins” for short) in data set [2] (10 μmol/L warfarin) is “MK-7>MK-8>MK-9”.

Turning to `CC(C)=CCC/C(C)=C/CC/C(C)=C/CC/C(C)=C/CC/C(C)=C/CC/C(C)=C/CC/C(C)=C/CC/C(C)=C/CC/C(C)=C/CC1=C(C)C(=O)c2ccccc2C1=O` [MK-9], the “stability in growth media” value in [6] is recorded as “fairly stable”. The “cellular uptake compared with other K vitamins” value in [1] is reported as “somewhat less”. Besides, in [2] (10 μmol/L warfarin), the “utilization of K-vitamins” value is recorded as “MK-7>MK-8>MK-9”. In addition, in data set [2] (10 μmol/L warfarin, FIG. 7), the “epoxide formation in the presence of warfarin” value is “hardly formed”.

For `CC1=C(C/C=C(\C)CCC[C@H](C)CCC[C@H](C)CCCC(C)C)C(=O)c2ccccc2C1=O` [K1, vitamin K1, reference compound], the “stability in growth media” value in data set [6] is reported as “fairly stable”. In data set [1], the “cellular uptake compared with other K vitamins” value was “much less”. Also, in [2], the interference with warfarin entry is recorded as “interfere substantially”. Also, in [3], the “epoxides found without warfarin at decreased fetal calf serum” value is on record as “mainly found”. Moreover, the “Carboxylated matrix Gla-protein” value in [4] was 12.4 ng/mL. For the same compound, the “Carboxylated osteocalcin” value with MG63 [5] stood at 3.2 ng/mL.

On to `CC(C)=CCC/C(C)=C/CC/C(C)=C/CC/C(C)=C/CC/C(C)=C/CC/C(C)=C/CC/C(C)=C/CC1=C(C)C(=O)c2ccccc2C1=O` [MK-7], for which the “fish-oil induced hypocoagulability (ETP)” value in data set [7] (10 μg/day MK-7 during last 3 of 4 months on 5 g/day fish oil) is given as “not counteracted”. Moreover, the “ETP lowering effect of marine oils” value in data set [7] (MK-7 100 μg per day and higher, marine oil intake 5 grams per day) is “completely reversed”. In addition, the “endogenous thrombin potential (ETP)” value in [7] (MK-7 between 1 and 10 μg/day, marine oil intake 5 grams per day) is on record as “did not affect”. Besides, in the data set on Matrix Gla-Protein (MGP), the “change in MGP carboxylation (ratio carboxylated / non-carboxylated MGP)” value is “significance was lost”. In addition, the “change in osteocalcin carboxylation” value in the data set with osteocalcin was “significance was lost”. In data set [8] (2 μg MK-7 per g fish oil or krill oil, sealed glass bottles, dark, room temperature, 40° C., 100° C., even after 2 weeks at 100° C.), the “loss of MK-7 content” value is listed as “No loss”. Besides, the “time compositions remained stable” value in data set [8] (40° C.) is on record as not below 6 months; in data set [8] (100° C.) it was “at least 2 weeks”; in [8] (room temperature), not below 3 years. Further, the “stability in growth media” value in [6] is “fairly stable”. In addition, the “cellular uptake compared with other K vitamins” value in data set [1] is “taken up better than other K vitamins”. Also, the “cellular uptake compared with other K vitamins (dose-response, Experiment 6)” value in [1] (all systems, notably extrahepatic cells, cells at 80% confluence) is “taken up surprisingly better than the other K vitamins”. For the same compound, the “cellular uptake compared with other K vitamins (time course, Experiment 7)” value in data set [1] (all three cell systems, mixture 1 μmol/L) is “taken up better than any of the other vitamins”. The “vitamin K uptake compared between cell types” value in data set [9] is given as “highest”; in the data set with MG63 [10], “lowest”. Also, in [2] (10 μmol/L warfarin), the “utilization of K-vitamins” value is reported as “MK-7>MK-8>MK-9”. Also, in data set [4], the “Carboxylated matrix Gla-protein” value was determined as 13.5 ng/mL. Also, the “Carboxylated osteocalcin” value in the data set with MG63 [5] is given as 3.9 ng/mL. Also, in data set [11], the “effect on warfarin anticoagulation” value is given as “counteract the effect of warfarin”.
